One experiment has as its system PAE UFR90. Format: cell-based, P. aeruginosa. Particulars: tntbc: Too numerous to be counted. As for the experimental part:
(§1) Method 4: Determination of the Spontaneous Mutation Frequency of the Compounds Alone and Combined with Antibiotics.
(§2) Bacterial isolates (Table 3) were grown overnight at 35° C. on TSA plates (Becton-Dickinson and Company) in ambient air. After 24 h of incubation, isolated bacterial colonies were added to cation-adjusted Mueller-Hinton broth (ca-MHB; Becton-Dickinson and Company) and cultured for approximately 6 h at 35° C. The pre-culture was stopped once bacteria have reached an OD600 nm of 0.5 for 200 μL. The bacterial suspension was centrifuged at 4000 rpm for 20 min. The supernatant was then discarded and the bacterial pellet was dissolved in ca-MHB to obtain 10^9 to 10^10 CFU/mL. Assays including Fosfomycin were supplemented with 25 μg/ml of Glucose-6-phosphate. 100 μL of the adjusted bacterial suspension were spread on agar plates containing different concentrations of the compounds of the present invention alone or combined with an antibacterial (Table 1). The plates were incubated for 24-48 h at 35° C. in ambient air. CFU were numerated on each agar plate containing compound. The number of resistant colonies obtained was divided by the starting inoculum to give the frequency of spontaneous resistance for a given incubation time (24 and 48 h).

Another experiment has as its system PAE UFR48. Format: cell-based, P. aeruginosa. Particulars: tntbc: Too numerous to be counted. As for the experimental part: as §1, §2
The subject of experiment [1] is PAE 27853. Format: cell-based, P. aeruginosa. Particulars: tntbc: Too numerous to be counted. The protocol: as §1, §2
Experiment [2] relates to PAE 27853. Kind of experiment: MIC, broth microdilution (CLSI), substance alone or ATB combined with compound at 4 or 8 μg/mL. Particulars: Pseudomonas aeruginosa, substance alone. Format: cell-based, P. aeruginosa. The gist of the method: (§3)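 Each strain received 5·10^5 CFU/mL of log-phase cells in ca-MHB over DMSO-spotted compound or compound-antibiotic combinations. After 16-20 h at 35° C, growth was scored visually.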

For another experiment, the system named is KPN UFR68. Described as above. Format: cell-based, K. pneumoniae. Particulars: Klebsiella pneumoniae, substance alone. In short, it runs like this:
as §3

Like-named read-outs stand apart in the source and are kept apart here.

On to `NC[C@H]1C=C(c2cnco2)[C@@H]2CN1C(=O)N2OS(=O)(=O)[O-].O=C(O)C(F)(F)F.[Na+]` (relative stereo) [Example 1, sodium and 2,2,2-trifluoroacetate [trans-2-(azaniumylmethyl)-4-oxazol-5-yl-7-oxo-1,6-diazabicyclo[3.2.1]oct-3-en-6-yl] sulfate], for which the “Frequency of spontaneous resistance” value in the experiment on PAE UFR90 (single agent at 4.MIC), with PAE UFR90 (single agent at 8.MIC), with PAE UFR48 (single agent at 4.MIC), with PAE UFR48 (single agent at 8.MIC), in the experiment with PAE 27853 [1] (single agent at 4.MIC) and with PAE 27853 [1] (single agent at 8.MIC) was “tntbc” throughout. Besides, the MIC in the experiment on PAE 27853 [2] worked out at 1 µg/mL.

In the case of `CO/N=C(\C(=O)N[C@@H]1C(=O)N2C(C(=O)[O-])=C(C[N+]3(C)CCCC3)CS[C@H]12)c1csc(N)n1` [FEP, Cefepime], the MIC with KPN UFR68 was over 256 µg/mL.

With `NCC[C@H](O)C(=O)N[C@@H]1C[C@H](N)[C@@H](O[C@H]2O[C@H](CN)[C@@H](O)[C@H](O)[C@H]2O)[C@H](O)[C@H]1O[C@H]1O[C@H](CO)[C@@H](O)[C@H](N)[C@H]1O` [AN, Amikacin, reference compound], the “Frequency of spontaneous resistance” value with PAE 27853 [1] (single agent at 4.MIC) turned out to be 6.6E−07; in the experiment with PAE 27853 [1] (single agent at 8.MIC), 1.7E−07. For the same compound, in the experiment on PAE 27853 [2], the MIC came out at 2 µg/mL.

Broadly, the MIC is the least concentration at which growth counts as inhibited.

The record behind these values is patent US20200024278A1, “COMPOSITION COMPRISING ANTIBIOTIC COMPOUND AND AN HETEROCYCLIC COMPOUND AND THEIR USE IN PREVENTING OR TREATING BACTERIAL INFECTIONS” (MUTABILIS, priority 2016, published 2020).
